From patent publication US11202807B2, “Bacterial species” (WAGENINGEN UNIVERSITEIT, priority 2016, dated 2021)
In brackets after ≈: the same amount, converted by molar mass. Like-named read-outs stand apart in the source and are kept apart here.

Test system: strain Pyt^T
Test: Antibiotic resistance by the Etest method (MIC)
Type: cell-based, Akkermansia glycaniphilus
Details: for Level of resistance / sensitivity of strain Pyt^T to the antibiotic: EUCAST breakpoint table for Gram-negative anaerobes (Version 5.0); for MIC: read-out: Minimal Inhibitory Concentration (MIC)
Experimental: Antibiotic resistance was determined using the Etest method for both ampicillin and vancomycin (bioMérieux, Marcy l'Étoile, France). The minimal inhibitory concentration (MIC) was determined after 48 hours of incubation. In more detail, strain Pyt^T was grown in mucin media and after reaching stationary phase 100 ul was plated onto BHI plates supplemented with 0.5% (v/v) hog gastric mucin (Type III, Sigma), and 0.05% (w/v) of cysteine-HCL (Sigma-ALdrich). Plates were incubated for 24-48 hours under strictly anaerobic conditions. The level of resistance was determined using the European Committee on Antimicrobial Susceptibility Testing (EUCAST) breakpoint table for interpretation of MICs for Gram-negative anaerobes (Version 5.0, valid from 2015-01-01).

Molecule | Level of resistance / sensitivity of strain Pyt^T to the antibiotic (Etest) | MIC (48 h) | MIC (Etest, BHI plates with 0.5% hog gastric mucin and 0.05% cysteine-HCl, strictly anaerobic, read after 48 hours)
cholistin | sensitive | – | –
O=C(N[C@H](CO)[C@H](O)c1ccc([N+](=O)[O-])cc1)C(Cl)Cl [chloramphenicol] | sensitive | – | –
Cc1ncc([N+](=O)[O-])n1CCO [metronidazole] | sensitive | – | –
CN[C@H](CC(C)C)C(=O)N[C@H]1C(=O)N[C@@H](CC(N)=O)C(=O)N[C@H]2C(=O)N[C@H]3C(=O)N[C@H](C(=O)N[C@H](C(=O)O)c4cc(O)cc(O)c4-c4cc3ccc4O)[C@H](O)c3ccc(c(Cl)c3)Oc3cc2cc(c3O[C@@H]2O[C@H](CO)[C@@H](O)[C@H](O)[C@H]2O[C@H]2C[C@](C)(N)[C@H](O)[C@H](C)O2)Oc2ccc(cc2Cl)[C@H]1O [vancomycin] | relatively resistant | 24 µg/mL (≈ 16.6 µM) | –
CC1(C)S[C@@H]2[C@H](NC(=O)[C@H](N)c3ccccc3)C(=O)N2[C@H]1C(=O)O [ampicillin] | relatively resistant | – | 32 µg/mL (≈ 91.6 µM)
